According to patent US20240279338A1, “Combination Treatment of Cancer” (Ares Trading S.A., priority 2021, published 2024):

Tests used:
ADORA2A (A2A) [1] = experiment: RNAseq gene expression in MC38 tumors; assay type: in vivo, mice; details: bintrafusp alfa 24.6 mg/kg iv, Day 6 post treatment, vs isotype
Procedure: (§1) FIG. 4: Bintrafusp alfa increases expression of A2B in CD73h adenosine-rich 4T1 tumor model, but not in CD73^low adenosine-low MC38 tumor model. For the 4T1 tumor model, female BALB/c mice were inoculated with 2×10^5 4T1 cells into the right mammary fat pad. For the MC38 tumor model, female C57BL/6 mice were inoculated subcutaneously in the right flank with MC38 cells (1×10^6). Animals in both studies were randomized into the groups and treatments started when the average tumor size reached approximately 100-150 mm^3. For both models, there were 15 mice in each group. The animals were treated with isotype control (20 mg/kg, iv) or bintrafusp alfa (24.6 mg/kg, iv) on days 0, 1, and 2. Tumors were harvested on Day 6 post treatment start, flash frozen, and used for RNASeq analysis. Gene expression levels of (A) NT5E, (B) ADORA2A (A2A), and (C) ADORA2B (A2B) are presented as mean±SEM. P-values were calculated using two-way ANOVA.
(§2) To determine whether bintrafusp alfa treatment modulates expression of A2A or A2B receptors or NT5E (gene encoding CD73), mice with established 4T1 and MC38 tumors were treated with 20 mg/kg isotype antibody or 24.6 mg/kg bintrafusp alfa.

NT5E (CD73) [2] = experiment: RNAseq gene expression in MC38 tumors; assay type: in vivo, mice; details: bintrafusp alfa 24.6 mg/kg iv, Day 6 post treatment, vs isotype
Procedure: as §1, §2

ADORA2A (A2A) [3] = experiment: RNAseq gene expression in 4T1 tumors; assay type: in vivo, mice; details: bintrafusp alfa 24.6 mg/kg iv, Day 6 post treatment, vs isotype
Procedure: as §1, §2

ADORA2B (A2B) = experiment: RNAseq gene expression in 4T1 tumors; assay type: in vivo, mice; details: CD73hi 4T1 tumors; bintrafusp alfa 24.6 mg/kg iv; Day 6 post treatment; vs isotype
Procedure: as §1, §2

NT5E (CD73) [4] = experiment: RNAseq gene expression in 4T1 tumors; assay type: in vivo, mice; details: bintrafusp alfa 24.6 mg/kg iv, Day 6 post treatment, vs isotype
Procedure: as §1, §2

H22 cells = experiment: CD73low H22 syngeneic tumor model, tumor growth; assay type: in vivo; details: H22, female BALB/c mice; Day 16 post treatment initiation; Compound A 300 mg/kg po BID; bintrafusp alfa 24.6 mg/kg iv days 0, 3, 6
Procedure: Female BALB/c mice were inoculated with 1×10^6 H22 cells in the right upper flank and were treated with Compound A (300 mg/kg po, BID), bintrafusp alfa (24.6 mg/kg iv, days 0, 3, 6), Compound A+bintrafusp alfa, when average tumor volume reached approximately 55 mm3. Vehicle (po, BID) and isotype control antibody injections (20 mg/kg iv, days 0, 3, 6) were used as controls. (A) Average tumor volumes with SEM, and (B) individual tumor volumes are presented. Tumor volume data were analyzed using two-way ANOVA followed by Tukey's multiple comparison test.
To determine whether combined treatment with the dual A2A/A2B receptor inhibitor “Compound A” ((S)-7-Oxa-2-aza-spiro[4.5]decane-2-carboxylic acid [7-(3,6-dihydro-2H-pyran-4-yl)-4-methoxy-thiazolo[4,5-c]pyridin-2-yl]-amide) and bintrafusp alfa can inhibit tumor growth in either CD73^hi or CD73^low models, tumor growth was monitored in […] syngeneic tumor models. Animals were inoculated with either CD73^hi tumor cells (4T1, E0771, or EMT6) or with CD73^low MC38, H22 or MBT2 tumor cells. For all tumor models, animals were treated with either 1) vehicle and isotype, 2) Compound A and isotype, 3) vehicle and bintrafusp alfa, or 4) Compound A and bintrafusp alfa. […]

bintrafusp alfa: anti-PD-L1:TGFβRII fusion protein, CAS 1918149-01-5; human IgG1 antibody against PD-L1 fused to extracellular domain of human TGF-β receptor II
expression of A2A (ADORA2A (A2A) [1]): no changes
expression of NT5E (CD73) (NT5E (CD73) [2]): no changes
expression of A2A (ADORA2A (A2A) [3]): no changes
expression of A2B (ADORA2B (A2B)): increased
expression of NT5E (CD73) (NT5E (CD73) [4]): no changes
tumor growth inhibition, T/C (H22 cells): 34.4%
